Measured values published in US10786451B2, “Process for preparing a dry powder formulation comprising an anticholinergic, a corticosteroid and a beta-adrenergic” (CHIESI FARMACEUTICI S.P.A., priority 2015, dated 2020).

Experiments:
[1] = Particle size (volume diameter) by laser diffraction, Malvern apparatus; type: physicochemical; details: micronized material as used
Method: The size of the particles active is determined by measuring the characteristic equivalent sphere diameter, known as volume diameter, by laser diffraction. In the reported examples, the volume diameter has been determined using a Malvern apparatus. However, other equivalent apparatus may be used by the skilled person in the art.

[2] = Uniformity of distribution of the active ingredients in the blend (12 samples, HPLC); type: physicochemical
Method: In the context of the present application the flow properties were tested by measuring the flow rate through an orifice according to the method described in the European Pharmacopeia (Eur. Ph.) 8.6, 8th Edition, which is incorporated herein by reference in its entirety. […] It is usually determined according to known methods, for instance by taking samples from different parts of the powder and testing the component by HPLC or other equivalent analytical methods. The uniformity of distribution of the active ingredients was evaluated by withdrawing 12 samples from different parts of the blend and evaluated by HPLC.

[3] = Aerosol performance by Next Generation Impactor (NGI) from multidose dry powder inhaler; type: physicochemical
From the text: With the term “mid FPF” is defined as the fraction of delivered dose having a particle size comprised between […].
After aerosolization of 3 doses from the inhaler device, the NGI apparatus was disassembled and the amounts of drug deposited in the stages were recovered by washing with a solvent mixture and then quantified by High-Performance Liquid Chromatography (HPLC)

[4] = formulations disclosed Table 3 of WO 2015/004243; cited from earlier work
[5] = Batch CY (Cyclomix), reference formulation per WO 2015/004243
[6] = Batch MF (mechano-fusion), reference formulation per WO 2015/004243
[7] = powder formulation of Example 2
[8] = powder formulation of Example 2, NGI, 3 doses
[9] = powder formulation of Example 2, between 2.0 and 5.0 micron
[10] = powder formulation of Example 2, particle size equal to or lower than 5.0 micron
[11] = powder formulation of Example 3
[12] = powder formulation of Example 3, NGI
[13] = powder formulation of Example 3, between 2.0 and 5.0 micron
[14] = powder formulation of Example 3, particle size equal to or lower than 5.0 micron

SMILES: CCC(=O)OCC(=O)[C@@]1(OC(=O)CC)[C@@H](C)C[C@H]2[C@@H]3CCC4=CC(=O)C=C[C@]4(C)[C@@]3(Cl)[C@@H](O)C[C@@]21C [BDP, beclometasone dipropionate]
- particle size d(v0.1) [1]: 0.7 micron
- particle size d(v0.5) [1]: 1.5 micron
- particle size d(v0.9) [1]: 2.8 micron
- Uniformity of distribution ([2]; powder formulation of Example 2 (6 μg FF, 100 μg BDP, 12.5 μg GB per 10 mg carrier), mean value, RSD in next column): 101.8
- Uniformity of distribution ([2]; powder formulation of Example 3 (6 μg FF, 100 μg BDP, 25 μg GB per 10 mg carrier)): 100.2
- Delivered Dose [3, 5]: 90.6 µg
- Extrafine Particle Fraction <2 μm [3, 5]: 53.9%
- Extrafine Particle Mass <2 μm [3, 5]: 48.8 µg
- Fine Particle Fraction [3, 5]: 71.2%
- Fine Particle Mass [3, 5]: 64.5 µg
- MMAD [3, 5]: 1.08 μm
- Mid Fine Particle Mass [3, 5]: 15.7 µg
- Mid Fine particle Fraction [3, 5]: 17.3%
- Delivered Dose [3, 6]: 95.7 µg
- Extrafine Particle Fraction <2 μm [3, 6]: 52.2%
- Extrafine Particle Mass <2 μm [3, 6]: 50.0 µg
- Fine Particle Fraction [3, 6]: 69.9%
- Fine Particle Mass [3, 6]: 66.9 µg
- MMAD [3, 6]: 1.13 μm
- Mid Fine Particle Mass [3, 6]: 16.9 µg
- Mid Fine particle Fraction [3, 6]: 17.7%
- Extrafine Particle Fraction <1 μm [3, 7]: 28.7%
- Extrafine Particle Fraction <2 μm [3, 7]: 51.4%
- Extrafine Particle Mass <1 μm [3, 7]: 27.9 µg
- Extrafine Particle Mass <2 μm [3, 7]: 50 µg
- Fine Particle Fraction [3, 7]: 69.4%
- MMAD [3, 7]: 1.25 μm
- Delivered Dose [3, 8]: 97.4 µg
- Mid Fine Particle Mass [3, 9]: 17.6 µg
- Mid Fine particle Fraction [3, 9]: 18%
- Fine Particle Mass [3, 10]: 67.6 µg
- Extrafine Particle Fraction <1 μm [3, 11]: 16.2%
- Extrafine Particle Fraction <2 μm [3, 11]: 40.3%
- Extrafine Particle Mass <1 μm [3, 11]: 13.1 µg
- Extrafine Particle Mass <2 μm [3, 11]: 32.7 µg
- Fine Particle Fraction [3, 11]: 61.8%
- MMAD [3, 11]: 1.62 μm
- Delivered Dose [3, 12]: 80.9 µg
- Mid Fine Particle Mass [3, 13]: 17.3 µg
- Mid Fine particle Fraction [3, 13]: 21.4%
- Fine Particle Mass [3, 14]: 50.0 µg

SMILES: O.OC[C@H]1O[C@@H](O[C@H]2[C@H](O)[C@@H](O)[C@@H](O)O[C@@H]2CO)[C@H](O)[C@@H](O)[C@H]1O [Micronized alpha-lactose monohydrate, alpha-lactose monohydrate]
- particle size d(v0.1) [1]: 1.7 micron
- particle size d(v0.5) [1]: 4.3 micron
- particle size d(v0.9) [1]: 9.8 micron

SMILES: C[N+]1(C)CCC(OC(=O)C(O)(c2ccccc2)C2CCCC2)C1 (centres unmarked) [GB, Glycopyrronium bromide]
- particle size d(v0.1) [1]: 0.39 micron
- particle size d(v0.5) [1]: 1.91 micron
- particle size d(v0.9) [1]: 4.77 micron
- Delivered Dose [3, 5]: 11.6 µg
- Extrafine Particle Fraction <2 μm [3, 5]: 34.5%
- Extrafine Particle Mass <2 μm [3, 5]: 4.0 µg
- Fine Particle Fraction [3, 5]: 53.8%
- Fine Particle Mass [3, 5]: 6.6 µg
- MMAD [3, 5]: 1.78 μm
- Mid Fine Particle Mass [3, 5]: 2.6 µg
- Mid Fine particle Fraction [3, 5]: 22.4%
- Delivered Dose [3, 6]: 11.9 µg
- Extrafine Particle Fraction <2 μm [3, 6]: 33.6%
- Extrafine Particle Mass <2 μm [3, 6]: 4.0 µg
- Fine Particle Fraction [3, 6]: 57.2%
- Fine Particle Mass [3, 6]: 6.4 µg
- MMAD [3, 6]: 1.75 μm
- Mid Fine Particle Mass [3, 6]: 2.5 µg
- Mid Fine particle Fraction [3, 6]: 21.0%
- Extrafine Particle Fraction <1 μm [3, 7]: 15.4%
- Extrafine Particle Fraction <2 μm [3, 7]: 37.6%
- Extrafine Particle Mass <1 μm [3, 7]: 1.8 µg
- Extrafine Particle Mass <2 μm [3, 7]: 4.39 µg
- Fine Particle Fraction [3, 7]: 67.2%
- MMAD [3, 7]: 1.92 μm
- Delivered Dose [3, 8]: 11.66 µg
- Mid Fine Particle Mass [3, 9]: 3.46 µg
- Mid Fine particle Fraction [3, 9]: 29.6%
- Mid Fine particle Fraction ([3]; powder formulation of Example 2, between 2.0 and 5.0 micron, listed as glycopyrrolate): about 30%
- Fine Particle Mass [3, 10]: 7.85 µg
- Extrafine Particle Fraction <1 μm [3, 11]: 8.7%
- Extrafine Particle Fraction <2 μm [3, 11]: 27.4%
- Extrafine Particle Mass <1 μm [3, 11]: 1.75 µg
- Extrafine Particle Mass <2 μm [3, 11]: 5.49 µg
- Fine Particle Fraction [3, 11]: 57.1%
- MMAD [3, 11]: 2.15 μm
- Delivered Dose [3, 12]: 20.03 µg
- Mid Fine Particle Mass [3, 13]: 5.94 µg
- Mid Fine particle Fraction [3, 13]: 29.7%
- Mid Fine particle Fraction ([3]; powder formulation of Example 3, between 2.0 and 5.0 micron, listed as glycopyrrolate): about 30%
- Fine Particle Mass [3, 14]: 11.43 µg
- mid FPF [4]: about 20%
